Measurements reported in patent EP4389746A2, “P2X3 RECEPTOR ANTAGONISTS” (Recordati Industria Chimica E Farmaceutica SPA, priority 2022, dated 2024).

How the values were obtained:
human P2X2/3 receptor = biological target: T1, human P2X2/3 receptor (Homo sapiens, UniProt P56373+Q9UBL9); assay: Calcium fluorescence measurement: human P2X2/3 receptor activity inhibition (CHO-K1 cells, Fluo-8 NoWash, […]); type: cell-based
T1 construct: expressed in transfected cells; host or cells: CHO-K1
T1 sequence (P56373 1-397): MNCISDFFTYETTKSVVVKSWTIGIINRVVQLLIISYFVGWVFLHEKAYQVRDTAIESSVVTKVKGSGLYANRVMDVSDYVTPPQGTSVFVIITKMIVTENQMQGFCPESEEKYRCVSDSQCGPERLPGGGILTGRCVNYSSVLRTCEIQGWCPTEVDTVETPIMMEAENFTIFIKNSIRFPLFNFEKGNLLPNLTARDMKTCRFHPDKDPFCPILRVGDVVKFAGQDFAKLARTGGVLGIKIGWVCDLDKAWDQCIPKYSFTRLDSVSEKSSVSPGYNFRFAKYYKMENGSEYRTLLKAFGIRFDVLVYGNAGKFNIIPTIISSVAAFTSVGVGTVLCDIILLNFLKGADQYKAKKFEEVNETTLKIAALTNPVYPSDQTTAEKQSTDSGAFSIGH
T1 sequence (Q9UBL9 1-471): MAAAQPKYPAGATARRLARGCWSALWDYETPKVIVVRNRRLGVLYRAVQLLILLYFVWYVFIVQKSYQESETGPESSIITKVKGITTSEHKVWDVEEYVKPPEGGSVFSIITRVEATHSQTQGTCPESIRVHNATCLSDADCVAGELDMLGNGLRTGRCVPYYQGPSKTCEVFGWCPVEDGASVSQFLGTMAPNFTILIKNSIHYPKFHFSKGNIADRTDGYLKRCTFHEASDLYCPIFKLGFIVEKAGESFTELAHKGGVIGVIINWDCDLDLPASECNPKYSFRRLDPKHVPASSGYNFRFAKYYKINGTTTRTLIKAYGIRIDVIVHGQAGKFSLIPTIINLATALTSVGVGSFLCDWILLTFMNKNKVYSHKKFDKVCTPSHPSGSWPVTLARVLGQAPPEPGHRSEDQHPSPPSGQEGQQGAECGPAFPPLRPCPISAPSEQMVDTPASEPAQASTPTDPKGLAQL

C57BL/6J mice = assay: Scratching model: inhibition of ATP induced pruritus in mouse; type: in vivo
Description: (§1) C57BL/6J mice, Hartley Guinea pigs and Sprague-Dawley Rats from Charles River Italy were used in the experiments. Animals were housed with free access to food and water and maintained on a forced 12 hr light-dark cycle at 22-24°C for at least one week before the experiments were carried out. The animals were handled according to internationally accepted principles for care of laboratory animals (Directive 2010/63/EU of the European Parliament and of the Council of 22 September 2010).
"Scratchng model" - Inhibition of ATP induced pruritus in mouse
Mice were shaved at the rostral back the day before injection. The day of the experiment, an intradermal injection of the irritant agent α,β-meATP 200 µg/50 µL (Sigma, Italy) into the skin was performed. The hind limb scratching behavior directed toward the injection site, was recorded. One bout was defined as the lifting of the hindlimb toward the injection site and then placing the limb back on the floor. The number of bouts were counted for a period of 30 minutes. The Example 22 compound investigated was injected intraperitoneally 30 min before the administration of the irritant agent. (Fig. 2)
In the scratching model the results are presented as mean ± SEM of the values. Statistical analysis was performed using one-way ANOVA and Dunnet's test for multiple comparisons. The ED35 of the tested compounds was determined by linear regression analysis of bouts (Graphpad v5).

Hartley Guinea pigs = assay: Cough model: inhibition of citric acid induced cough in guinea pig; type: in vivo; details: intraperitoneally 30 min before nebulization of citric acid 0.4 M, compared with vehicle (Fig. 3)
Description: as §1
"Cough model" - Inhibition of citric acid induced cough in guinea pig
Conscious guinea pigs were placed in the transparent chamber of the whole-body plethysmograph (EMKA) and allowed to move freely. The number of coughs was registered by the IOX2 software for 10 minutes during and 10 minutes after the nebulization of citric acid 0.4 M. Example 22 was injected intraperitoneally 30 min before the nebulization of citric acid. (see Fig. 3) In cough model the results are presented as mean ± SEM of the values. Statistical analysis was performed using one-way ANOVA and Dunnet's test for multiple comparisons.

Sprague-Dawley Rats = assay: Two bottle taste test in rats: dysgeusia effect of P2X3 antagonists; type: in vivo; details: rats water fasted overnight; bottles presented 30 minutes after treatment for 15 minutes (Fig. 4)
Description: as §1
(Fig 3) "Two bottle taste test" in rats - Dysgeusia effect of P2X3 antagonists
Rats were water fasted overnight. The day of the experiment the animals were treated with tested compounds and 30 minutes later two bottles were presented for 15 minutes, the first one containing water and the second bottle containing Quinine, a substance showing a bitter taste. The volume of liquid drunk in 15 minutes from each bottle was recorded and expressed as percentage of preference (Fig.4). Statistical analysis was performed on absolute values (mean ± SEM) using one-way ANOVA and Tukey's test for multiple comparisons.

IC50 (human P2X2/3 receptor; CHO-K1 cells expressing human P2RX2/X3 channel, 10µM α,β-Met-ATP, read-out: h-P2X2/3 IC50): 18.8 µM | Selectivity (human P2X2/3 receptor; ratio of IC50 of P2X2/3/ P2X3 receptors): 510
Structure (SMILES): CC(C)C1C(=O)N=C2c3ncc(N4CCOCC4)cc3N(Cc3ccc(Cl)cc3)C(=O)N21 (racemic) [Example 22, 6-[(4-Chlorophenyl)methyl]-8-(morpholin-4-yl)-3-(propan-2-yl)imidazo[1,2-c]pyrido[2,3-e]pyrimidine-2,5(3H,6H)-dione]
ED35 (C57BL/6J mice; dose inhibiting the 35% of number of bouts, intraperitoneally 30 min before α,β-meATP 200 µg/50 µL intradermal, bouts counted for 30 minutes): 10.62 mg/kg | number of bouts (C57BL/6J mice; intraperitoneally 30 min before α,β-meATP, vs vehicle group (Fig. 2)): reduce the number of bouts significantly and in a dose-related manner | number of coughs (Hartley Guinea pigs): significantly reduced the number of coughs both during and after the nebulization of citric acid | preference between water and Quinine (Sprague-Dawley Rats): showed a clear preference for water in comparison to Quinine
